This is an account of results in PMC3237458, “PEGylation Potentiates the Effectiveness of an Antagonistic Peptide That Targets the EphB4 Receptor with Nanomolar Affinity” (PLoS ONE, 2011).

The Kd is the equilibrium constant for the complex coming apart.

“Also recorded” adds a separate entry of the source. Square brackets hold non-standard residues; d marks the D form. Peptide text beside a SMILES is read from it. * marks the point of attachment. Biotin = O=C1N[C@H]2[C@H](CS[C@H]2CCCCC(=O)*)N1; Ahx = NCCCCCC(=O)O

The subject of one data set is Eph receptors. Conditions: cited from earlier work. The source says:
(§1) Inhibiting EphB4-ephrin-B2 interaction could therefore be useful for diverse medical applications. […] A 15 amino acid-long EphB4 antagonistic peptide, TNYL-RAW (TNYLFSPNGPIARAW), could represent an alternative to the large EphB4 e ...

In another data set the target is mouse EphB4. To be noted: mouse EphB4, surface plasmon resonance; cited from earlier work.
Source text: as §1
(SPR reads the build-up and loss of mass on a sensor chip optically.)

The target of another data set is human EphB4. Conditions: human EphB4, isothermal titration calorimetry; cited from earlier work.
Source text: as §1

A short description of data set [1]: Peptide retention in mouse blood circulation. To be noted: 6 nmoles biotinylated TNYL-RAW IV, 3 mice, serum diluted 1:20, ELISA on EphB4 Fc; Figure 1D. It counts as in vivo. The method, then: 2.1 nmoles TNYL-RAW-Fc, 1.5 nmoles TNYL-RAW-streptavidin and 6 nmoles PEG-TNYL-RAW, diluted in 150 µl sterile PBS, were administered to C57BL/6 mice by intravenous or intraperitoneal injection. Blood was collected from each mouse from the orbital sinus at two time points after injection and by cardiac puncture under Avertin anesthesia at a third time point. These experiments were carried out in accordance with the recommendations in the Guide for the Care and Use of Laboratory Animals of the National Institutes of Health. The protocol was approved by the Institutional Animal Care and Use Committee of the Sanford-Burnham Medical Research Institute (Animal Assurance Number: A-3053-1). After collection, the blood was […], and the serum was stored at −20°C. The different forms of TNYL-RAW in the serum were detected by using the same ELISA assays described above for measurements of binding affinity. The absorbance from wells incubated with mouse serum without TNYL-RAW was subtracted as the background and the concentration of TNYL-RAW in the blood was calculated based on a standard curve generated using serum containing known TNYL-RAW concentrations. The half-life of each peptide was estimated by using non linear regression and the program Prism (GraphPad Software Inc.). The area under the curve (AUC) was expressed as % ID•hours/ml (where ID is the initial dose of peptide injected) and calculated by dividing the AUC value obtained using the program Prism by the amount of injected peptide and multiplying by 100.

In a further data set the test system is HUVECs and EMCs. Briefly: Capillary-like tube formation on Matrigel. The data set is classed as cell-based. To be noted: HUVECs and EMCs 2:1, Matrigel, 15 hours; TNYL-RAW tested up to 20 µM; Figure 6. The procedure:
An EMC clone expressing EGFP was generated by transducing EMCs (a kind gift from H. Eid) with a lentiviral construct followed by clonal selection. To generate capillary-like tubes, HUVECs (2.8×10^4), EMCs (7.5×10^4) or a mixture of the two cell types (2.8×10^4 HUVECs and 1.4×10^4 EMCs) were grown for 5 to 20 hours in 24-well tissue culture plates (Corning, Corning, NY) precoated with 80 µl Matrigel (BD Bioscience, San Jose, CA) in Medium 200 or DMEM complete culture medium containing PEG-TNYL-RAW or PEG control. In some experiments, mixed cultures were treated with TNYL-RAW or DMSO control. The cells were then fixed for 15 min in 4% formaldehyde in PBS and photographed under a fluorescence microscope. Tube length was quantified using ImageJ software.

The subject of the next data set is EphB4. To be noted: cell culture; cited from earlier work. The method, then:
An explanation for the discrepancy in the potency of the peptide in biochemical and cell culture assays could be that TNYL-RAW is susceptible to degradation by proteases present in cell culture medium. For example, trypsin-like proteases are l ... || Despite the low nanomolar EphB4 binding affinity of TNYL-RAW, the very short half-life of the peptide greatly limits its effectiveness, as exemplified by the high concentrations (10–100 µM) needed to inhibit EphB4-ephrin-B2 interaction in cell culture, [33], [36], [37]. We used three strategies to improve TNYL-RAW stability in cell culture and circulating half-life: fusion with Fc, complexation with streptavidin and covalent coupling to 40 KDa polymeric PEG molecules. Fusion with Fc has been successfully used to improve the stability and pharmacokinetic properties of numerous prot ...

The next data set deals with T1, EphB4-ephrin-B2 binding (Mus musculus, UniProt P54761).
T1 construct: EphB4 Fc, a soluble dimeric form of the EphB4 extracellular domain fused to Fc; purchased R&D Systems, Minneapolis, MN (EphB4 Fc); ephrin-B2 AP made in house from a GeneHunter plasmid; host or cells: HEK 293T cells for ephrin-B2 AP
T1 sequence (P54761 16-539 limits assumed): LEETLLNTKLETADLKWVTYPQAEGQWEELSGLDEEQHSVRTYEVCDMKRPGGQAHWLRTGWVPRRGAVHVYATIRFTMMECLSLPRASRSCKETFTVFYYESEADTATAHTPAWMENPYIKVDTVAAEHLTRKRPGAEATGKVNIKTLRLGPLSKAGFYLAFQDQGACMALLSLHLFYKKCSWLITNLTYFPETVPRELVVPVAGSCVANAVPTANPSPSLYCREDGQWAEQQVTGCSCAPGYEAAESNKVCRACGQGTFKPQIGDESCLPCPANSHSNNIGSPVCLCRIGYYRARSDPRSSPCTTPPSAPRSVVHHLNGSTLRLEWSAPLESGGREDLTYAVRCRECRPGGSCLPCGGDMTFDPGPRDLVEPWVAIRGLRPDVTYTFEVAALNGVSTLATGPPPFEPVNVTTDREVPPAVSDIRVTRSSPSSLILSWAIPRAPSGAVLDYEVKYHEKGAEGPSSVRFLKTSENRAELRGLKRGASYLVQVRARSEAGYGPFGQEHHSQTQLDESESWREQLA
Briefly: ELISA inhibition of EphB4-ephrin-B2 binding (ephrin-B2 AP on immobilized EphB4 Fc). To be noted: incubated in conditioned medium for 4 hours before ELISA; Figure 1C. The method, then: Alkaline phosphatase (AP) fusion proteins were produced by transiently transfecting the mouse EphB4 AP [70] or mouse ephrin-B2 AP plasmids (GeneHunter, Nashville, TN) in HEK 293T cells and growing the cells in serum-free Opti-MEM medium for 2–4 days. If necessary, the culture medium containing the secreted AP protein was concentrated by centrifugation in Amicon 30,000 MW cutoff filters (Millipore, Inc., Temecula, CA). EphB4 and ephrin-B2 AP concentrations were calculated from alkaline phosphatase activity.
EphB4 Fc (1 µg/ml in TBST) was immobilized in protein A-coated plates and incubated for 3 hours with 0.02 nM ephrin-B2 AP in culture medium diluted in TBST in the presence of different concentrations of TNYL-RAW, TNYL-RAW-Fc, TNYL-RAW-streptavidin and PEG-TNYL-RAW. Bound ephrin-B2 AP was quantified by adding pNPP as the substrate and measuring the absorbance at 405 nm. Alkaline phosphatase activity from wells where human Fc (R&D Systems, Minneapolis, MN) was added instead of EphB4 Fc was subtracted as the background. The binding curves were analyzed using non linear regression and the program Prism (GraphPad Software Inc.).
For orientation: ELISA stands for enzyme-linked immunosorbent assay.

A short description of data set [2]: Peptide stability in mouse serum ex vivo. The data set is classed as in vitro ADME. To be noted: 37°C.

`CC[C@H](C)[C@H](NC(=O)[C@@H]1CCCN1C(=O)CNC(=O)[C@H](CC(N)=O)NC(=O)[C@@H]1CCCN1C(=O)[C@H](CO)NC(=O)[C@H](Cc1ccccc1)NC(=O)[C@H](CC(C)C)NC(=O)[C@H](Cc1ccc(O)cc1)NC(=O)[C@H](CC(N)=O)NC(=O)[C@@H](N)[C@@H](C)O)C(=O)N[C@@H](C)C(=O)N[C@@H](CCCNC(=N)N)C(=O)N[C@@H](C)C(=O)N[C@@H](Cc1c[nH]c2ccccc12)C(=O)NCCCCCC(=O)N[C@@H](CCCCNC(=O)CCCC[C@@H]1SC[C@@H]2NC(=O)N[C@@H]21)C(N)=O` [TNYL-RAW] (H-TNYLFSPNGPIARAW[Ahx]K(Biotin)-NH2; N-terminus and C-terminus assumed): the “Selectivity of binding among Eph receptors” value in the data set with Eph receptors is recorded as “selectively binds to EphB4 but not any other Eph receptor”. In addition, the Kd is 3 nM at mouse EphB4 and 70 nM on human EphB4. Also, in data set [1], the “Detection in mouse serum 30 min after intravenous administration” value was “could not be detected; also recorded: undetectable”. The “Effect on capillary-like tube formation in co-cultures at different concentrations” value in the data set on HUVECs and EMCs is given as “does not have significant effects; also recorded: does not have a significant effect”. Also, the “Peptide concentrations needed to substantially inhibit ephrin-B2-induced EphB4 tyrosine phosphorylation and downstream effects / EphB4-ephrin-B2 interaction in cultured cells” value in the data set with EphB4 was 10 to 100 µM. The “Ability to inhibit ephrin-B2-EphB4 interaction after incubation in PC3 cell conditioned medium” value at EphB4-ephrin-B2 binding is “abolished the ability of TNYL-RAW to inhibit ephrin-B2-EphB4 interaction”. Besides, the “Loss in mouse serum ex vivo with protease inhibitors” value in data set [2] (mouse serum, mixture of protease inhibitors, ELISA, Fig. 1E) was “partially counteracted by a mixture of protease inhibitors”. Moreover, the “Stability in mouse serum ex vivo” value in data set [2] (undiluted mouse serum, functional peptide by ELISA, Figures 1E, 3B) was “rapidly lost”.
